Source: ChEMBL document CHEMBL3525955, “Glucuronidation of the red clover isoflavone irilone by liver microsomes from different species and human UDP-glucuronosyltransferases” (Drug Metab Dispos, 2011)
Values belong to the compound of their own block, whether it stands above or below them.

Key:
Format in all cases: ADME
[1] = biological target: T1, UDP-glucuronosyltransferase 1A9 (Homo sapiens, UniProt O60656); assay: Activity of human recombinant UGT1A9 assessed as […]-O-4'-monoglucuronide formation incubated for 5 mins prior to UDPGA addition measured after 90 mins by HPLC-DAD analysis; conditions: recombinant enzyme, 1.5 h
T1 sequence (O60656 whole entry): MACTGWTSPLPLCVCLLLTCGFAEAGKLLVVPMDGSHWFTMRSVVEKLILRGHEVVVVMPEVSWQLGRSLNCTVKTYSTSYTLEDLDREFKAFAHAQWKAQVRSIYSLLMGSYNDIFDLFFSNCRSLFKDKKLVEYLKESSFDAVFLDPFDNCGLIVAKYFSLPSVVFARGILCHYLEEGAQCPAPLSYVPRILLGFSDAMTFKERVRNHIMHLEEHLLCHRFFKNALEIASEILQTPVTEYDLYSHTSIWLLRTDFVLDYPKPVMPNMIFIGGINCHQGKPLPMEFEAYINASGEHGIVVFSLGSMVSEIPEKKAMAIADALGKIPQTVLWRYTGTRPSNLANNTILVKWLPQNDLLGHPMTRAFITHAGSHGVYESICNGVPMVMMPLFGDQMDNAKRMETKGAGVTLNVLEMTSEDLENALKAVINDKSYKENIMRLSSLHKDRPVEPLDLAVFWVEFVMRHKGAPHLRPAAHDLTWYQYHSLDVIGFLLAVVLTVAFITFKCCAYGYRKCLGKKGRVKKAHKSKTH

[2] = biological target: T2, UDP-glucuronosyltransferase 1A10 (Homo sapiens, UniProt Q9HAW8); assay: Activity of human recombinant UGT1A10 assessed as […]-O-4'-monoglucuronide formation incubated for 5 mins prior to UDPGA addition measured after 90 mins by HPLC-DAD analysis; conditions: recombinant enzyme, 1.5 h
T2 sequence (Q9HAW8 whole entry): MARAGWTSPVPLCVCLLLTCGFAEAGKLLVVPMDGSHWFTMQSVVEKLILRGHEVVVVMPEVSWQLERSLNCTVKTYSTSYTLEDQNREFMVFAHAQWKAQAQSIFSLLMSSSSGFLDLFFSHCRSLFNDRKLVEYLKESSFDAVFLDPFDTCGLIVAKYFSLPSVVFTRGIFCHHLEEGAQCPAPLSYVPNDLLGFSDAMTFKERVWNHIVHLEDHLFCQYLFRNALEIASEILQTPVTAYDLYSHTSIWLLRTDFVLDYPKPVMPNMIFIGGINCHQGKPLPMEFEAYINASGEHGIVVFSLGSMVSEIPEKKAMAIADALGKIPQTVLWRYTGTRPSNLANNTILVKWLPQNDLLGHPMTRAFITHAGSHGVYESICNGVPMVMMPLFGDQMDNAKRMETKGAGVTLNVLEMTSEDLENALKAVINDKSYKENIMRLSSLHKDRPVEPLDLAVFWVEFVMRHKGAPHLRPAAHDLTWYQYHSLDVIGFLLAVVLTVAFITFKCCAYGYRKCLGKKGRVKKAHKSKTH

[3] = biological target: T2, UDP-glucuronosyltransferase 1A10; assay: Activity of human recombinant UGT1A10 at 100 uM; conditions: recombinant enzyme
[4] = biological target: T1, UDP-glucuronosyltransferase 1A9; assay: Activity of human recombinant UGT1A9 at 100 uM; conditions: recombinant enzyme
[5] = biological target: T3, UDP-glucuronosyltransferase 1A1 (Homo sapiens, UniProt P22309); assay: Drug level assessed as human recombinant UGT1A1-mediated glucuronidation treated with 25 uM irilone incubated for 5 mins prior to UDPGA addition measured after 90 mins by HPLC-DAD analysis; conditions: recombinant enzyme, 1.5 h
T3 sequence (P22309 whole entry): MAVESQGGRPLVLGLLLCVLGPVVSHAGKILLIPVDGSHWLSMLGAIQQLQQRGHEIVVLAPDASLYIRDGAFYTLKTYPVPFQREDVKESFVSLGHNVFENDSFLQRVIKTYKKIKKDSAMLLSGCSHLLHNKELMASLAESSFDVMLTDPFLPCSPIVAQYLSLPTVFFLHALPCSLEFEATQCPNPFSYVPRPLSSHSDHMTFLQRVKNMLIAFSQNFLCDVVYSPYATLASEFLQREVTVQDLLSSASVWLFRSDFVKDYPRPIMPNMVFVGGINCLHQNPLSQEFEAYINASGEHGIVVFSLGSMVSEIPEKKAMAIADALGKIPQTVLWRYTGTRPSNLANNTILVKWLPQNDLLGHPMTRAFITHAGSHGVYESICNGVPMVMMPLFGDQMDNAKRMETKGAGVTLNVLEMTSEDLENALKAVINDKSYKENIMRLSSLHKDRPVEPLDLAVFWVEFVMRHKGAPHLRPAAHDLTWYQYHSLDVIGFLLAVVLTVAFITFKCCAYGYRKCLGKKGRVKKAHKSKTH

[6] = biological target: T1, UDP-glucuronosyltransferase 1A9; assay: Drug level assessed as human recombinant UGT1A9-mediated glucuronidation formation treated with irilone incubated for 5 mins prior to UDPGA addition measured after 90 mins by HPLC-DAD analysis; conditions: recombinant enzyme, 1.5 h
[7] = biological target: T4, UDP-glucuronosyltransferase 1A7 (Homo sapiens, UniProt Q9HAW7); assay: Drug level assessed as human recombinant UGT1A7-mediated glucuronidation treated with 25 uM irilone incubated for 5 mins prior to UDPGA addition measured after 90 mins by HPLC-DAD analysis; conditions: recombinant enzyme, 1.5 h
T4 sequence (Q9HAW7 whole entry): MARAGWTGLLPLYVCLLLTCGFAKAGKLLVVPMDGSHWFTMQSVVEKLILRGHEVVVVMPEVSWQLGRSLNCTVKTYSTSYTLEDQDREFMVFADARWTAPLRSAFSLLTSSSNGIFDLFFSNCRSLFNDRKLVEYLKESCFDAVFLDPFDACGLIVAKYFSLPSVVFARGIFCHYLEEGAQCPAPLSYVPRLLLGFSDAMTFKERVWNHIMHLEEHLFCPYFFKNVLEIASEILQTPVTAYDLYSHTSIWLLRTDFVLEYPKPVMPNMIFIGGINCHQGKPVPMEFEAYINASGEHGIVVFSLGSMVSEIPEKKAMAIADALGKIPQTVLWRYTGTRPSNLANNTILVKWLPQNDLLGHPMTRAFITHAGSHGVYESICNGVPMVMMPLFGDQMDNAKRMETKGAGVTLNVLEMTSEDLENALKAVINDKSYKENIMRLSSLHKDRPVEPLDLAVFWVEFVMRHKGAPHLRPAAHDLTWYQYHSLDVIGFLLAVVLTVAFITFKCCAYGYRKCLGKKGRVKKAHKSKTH

[8] = biological target: T5, UDP-glucuronosyltransferase 1A8 (Homo sapiens, UniProt Q9HAW9); assay: Drug level assessed as human recombinant UGT1A8-mediated glucuronidation treated with 25 uM irilone incubated for 5 mins prior to UDPGA addition measured after 90 mins by HPLC-DAD analysis; conditions: recombinant enzyme, 1.5 h
T5 sequence (Q9HAW9 whole entry): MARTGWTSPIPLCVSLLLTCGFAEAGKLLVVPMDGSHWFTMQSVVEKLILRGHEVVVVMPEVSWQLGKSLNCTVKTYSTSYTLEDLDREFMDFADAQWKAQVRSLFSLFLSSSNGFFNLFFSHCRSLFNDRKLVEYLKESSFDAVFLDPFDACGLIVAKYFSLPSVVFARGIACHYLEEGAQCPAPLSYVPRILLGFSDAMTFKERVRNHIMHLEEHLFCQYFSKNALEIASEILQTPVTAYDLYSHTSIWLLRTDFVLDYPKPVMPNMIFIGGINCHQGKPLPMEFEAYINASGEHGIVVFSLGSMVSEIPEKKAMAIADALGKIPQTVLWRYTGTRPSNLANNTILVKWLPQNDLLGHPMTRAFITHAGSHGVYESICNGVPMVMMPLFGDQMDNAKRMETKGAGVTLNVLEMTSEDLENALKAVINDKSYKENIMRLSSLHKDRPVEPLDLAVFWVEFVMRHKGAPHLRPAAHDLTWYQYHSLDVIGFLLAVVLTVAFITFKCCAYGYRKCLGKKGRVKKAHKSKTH

- Drug metabolism [1]: metabolite_not_detected
- Drug metabolism [2]: metabolite_detected
SMILES: COc1c2c(cc3occ(-c4ccc(O)cc4)c(=O)c13)OCO2 [IRISOLONE]

- Activity [3]: 0.5 nmol/mg/min
- Activity [4]: 0.5 nmol/mg/min
SMILES: O=c1c(-c2ccc(O)cc2)coc2cc(O)ccc12 [DAIDZEIN]

- Drug metabolism [5]: metabolite_detected
- Drug metabolism [6]: metabolite_detected
- Drug metabolism [7]: metabolite_detected
- Drug metabolism [8]: metabolite_detected
SMILES: O=C(O)[C@H]1O[C@@H](Oc2c3c(cc4occ(-c5ccc(O)cc5)c(=O)c24)OCO3)[C@H](O)[C@@H](O)[C@@H]1O

- Activity [3]: 0.5 nmol/mg/min
- Activity [4]: 0.5 nmol/mg/min
SMILES: O=c1c(-c2ccc(O)cc2)coc2cc(O)cc(O)c12 [GENISTEIN]
